Experiments:
[1] = tested on: Normal human dermal fibroblasts (NHDF-AD)
Description: Normal human dermal fibroblasts (NHDF-AD: product of Kurabo Industries, Ltd.) were inoculated onto a 24-well plate (1.0×10^4 cells/well), and incubated for four days in 1 ml of DMEM containing 10% FBS(vol/vol). Subsequently, the supernatant of the wells was replaced with 1 ml of fresh DMEM containing 10% FBS(vol/vol), and 5 μl of ethanol solution containing a predetermined concentration of tocopherol or 5 μl of ethanol was added to the concentrations shown in Tables 1 and 2, and […] of 0.045% hydroquinone solution was added, followed by incubation for 24 hours. Then, the supernatant of the wells were removed by replacement with 1 ml of medium, and the number of cells that survived was determined by WST-1 assay.

[2] = approximate ratio, reportedly; cited from earlier work
[3] = J. Act. Oxyg. Free Rad. 3:531-54; cited from earlier work

Compound	hydroquinone-cytotoxicity-reducing activity (rank among tocopherols) [1]	survival rate, times higher than that of Control 1 [1]	ratio of biological activities of α-, β-, γ-, and δ-tocopherols [2]	antioxidant activity against oils and fats (rank) [3]	survival rate compared with Control 1 [1]
Cc1c(O)cc2c(c1C)O[C@](C)(CCC[C@H](C)CCC[C@H](C)CCCC(C)C)CC2 [γ-tocopherol]	second highest	more than 2.3 times	~4	–	–
Cc1c(C)c2c(c(C)c1O)CC[C@@](C)(CCC[C@H](C)CCC[C@H](C)CCCC(C)C)O2 [α-tocopherol]	–	more than 1.3 times	approximately 100	lowest	–
Cc1cc(O)cc2c1O[C@](C)(CCC[C@H](C)CCC[C@H](C)CCCC(C)C)CC2 [δ-tocopherol]	highest	–	~0.1	highest	remarkably higher survival rate
Cc1cc(O)c(C)c2c1O[C@](C)(CCC[C@H](C)CCC[C@H](C)CCCC(C)C)CC2 [β-tocopherol]	–	–	~24	–	–
